According to the NIST ThermoML archive (doi:10.1016/j.fluid.2011.06.011):
Numbers after ± are expanded uncertainties.

Experiment: xn = mol fraction of the nth substance listed
Settings: Liquid; for speed of sound: Sing-around technique in a fixed-path interferometer; for mass density: Vibrating tube method

C=CC(C)(O)CCC=C(C)C (stereo not drawn) [3,7-dimethyl-1,6-octadien-3-ol] + CCO
Settings	mass density, 283.15 K [kg/m3]	mass density, 298.15 K [kg/m3]	speed of sound, 283.15 K [m/s]	speed of sound, 298.15 K [m/s]
101 kPa, x1 = 0.0506	809.66 ± 0.12	797.07 ± 0.13	1222 ± 0.7	–
101 kPa, x1 = 0.0507	–	–	–	1171.7 ± 0.7
101 kPa, x1 = 0.1008	819.09 ± 0.12	806.76 ± 0.13	1245 ± 0.8	1196.3 ± 0.8
101 kPa, x1 = 0.1969	833.37 ± 0.13	821.08 ± 0.14	1281 ± 0.9	1229.2 ± 0.9
101 kPa, x1 = 0.2895	843.35 ± 0.15	831.1 ± 0.15	–	1253.6 ± 1
101 kPa, x1 = 0.2959	–	–	1307.6 ± 1	–
101 kPa, x1 = 0.3862	–	838.62 ± 0.19	1325.8 ± 1.1	1271.2 ± 1.1
101 kPa, x1 = 0.3957	851.69 ± 0.19	–	–	–
101 kPa, x1 = 0.4803	856.48 ± 0.22	844.09 ± 0.23	1339 ± 1.2	–
101 kPa, x1 = 0.4834	–	–	–	1285 ± 1.2
101 kPa, x1 = 0.593	861.02 ± 0.29	848.66 ± 0.29	1350.3 ± 1.4	1294.7 ± 1.4
101 kPa, x1 = 0.6838	863.65 ± 0.35	851.31 ± 0.35	1355.4 ± 1.5	1300.7 ± 1.5
101 kPa, x1 = 0.7832	–	–	1361 ± 1.7	1306.5 ± 1.7
101 kPa, x1 = 0.8438	866.82 ± 0.48	854.5 ± 0.47	–	–
101 kPa, x1 = 0.8941	867.74 ± 0.52	855.41 ± 0.52	1365.1 ± 1.9	1310.7 ± 1.9
101 kPa, x1 = 0.9286	868.3 ± 0.56	855.96 ± 0.55	1366.7 ± 1.9	1312.2 ± 1.9
101 kPa, x1 = 1	869.39 ± 0.63	857 ± 0.62	1370.6 ± 2	1315.1 ± 2
20000 kPa, x1 = 0.0511	824.1 ± 0.6	812.6 ± 0.6	–	–
20000 kPa, x1 = 0.1003	832.7 ± 0.6	821.5 ± 0.6	–	–
20000 kPa, x1 = 0.1962	845.8 ± 0.6	834.6 ± 0.6	–	–
20000 kPa, x1 = 0.2989	856 ± 0.6	844.8 ± 0.6	–	–
20000 kPa, x1 = 0.3996	863 ± 0.6	851.7 ± 0.6	–	–
20000 kPa, x1 = 0.5015	868.2 ± 0.6	856.9 ± 0.6	–	–
20000 kPa, x1 = 0.5982	871.9 ± 0.6	860.6 ± 0.6	–	–
20000 kPa, x1 = 0.6898	874.7 ± 0.7	863.4 ± 0.7	–	–
20000 kPa, x1 = 0.7929	877.2 ± 0.7	865.8 ± 0.7	–	–
20000 kPa, x1 = 0.8885	879.1 ± 0.8	867.7 ± 0.8	–	–
20000 kPa, x1 = 0.9435	880 ± 0.8	868.6 ± 0.8	–	–
20000 kPa, x1 = 1	880.8 ± 0.8	869.4 ± 0.8	–	–
25000 kPa, x1 = 0.0511	827.5 ± 0.6	816.1 ± 0.6	–	–
25000 kPa, x1 = 0.1003	836.1 ± 0.6	824.9 ± 0.6	–	–
25000 kPa, x1 = 0.1962	849 ± 0.6	837.9 ± 0.6	–	–
25000 kPa, x1 = 0.2989	859.1 ± 0.6	848 ± 0.6	–	–
25000 kPa, x1 = 0.3996	866 ± 0.6	854.8 ± 0.6	–	–
25000 kPa, x1 = 0.5015	871.2 ± 0.6	860 ± 0.6	–	–
25000 kPa, x1 = 0.5982	874.9 ± 0.6	863.6 ± 0.6	–	–
25000 kPa, x1 = 0.6898	877.6 ± 0.7	866.3 ± 0.7	–	–
25000 kPa, x1 = 0.7929	880.1 ± 0.7	868.7 ± 0.7	–	–
25000 kPa, x1 = 0.8885	882 ± 0.8	870.7 ± 0.8	–	–
25000 kPa, x1 = 0.9435	882.9 ± 0.8	871.5 ± 0.8	–	–
25000 kPa, x1 = 1	883.7 ± 0.9	872.3 ± 0.9	–	–
30000 kPa, x1 = 0.0511	830.7 ± 0.6	819.6 ± 0.6	–	–
30000 kPa, x1 = 0.1003	839 ± 0.6	828.2 ± 0.6	–	–
30000 kPa, x1 = 0.1962	851.9 ± 0.6	841.1 ± 0.6	–	–
30000 kPa, x1 = 0.2989	861.9 ± 0.6	851 ± 0.6	–	–
30000 kPa, x1 = 0.3996	868.8 ± 0.6	857.8 ± 0.6	–	–
30000 kPa, x1 = 0.5015	873.9 ± 0.6	863 ± 0.6	–	–
30000 kPa, x1 = 0.5982	877.5 ± 0.6	866.5 ± 0.7	–	–
30000 kPa, x1 = 0.6898	880.2 ± 0.7	869.2 ± 0.7	–	–
30000 kPa, x1 = 0.7929	882.7 ± 0.7	871.6 ± 0.7	–	–
30000 kPa, x1 = 0.8885	884.6 ± 0.8	873.5 ± 0.8	–	–
30000 kPa, x1 = 0.9435	885.4 ± 0.8	874.4 ± 0.8	–	–
30000 kPa, x1 = 1	886.1 ± 0.9	875.2 ± 0.9	–	–
35000 kPa, x1 = 0.0511	833.8 ± 0.6	822.8 ± 0.6	–	–
35000 kPa, x1 = 0.1003	842.2 ± 0.6	831.4 ± 0.6	–	–
35000 kPa, x1 = 0.1962	854.9 ± 0.6	844.1 ± 0.6	–	–
35000 kPa, x1 = 0.2989	864.7 ± 0.6	854 ± 0.6	–	–
35000 kPa, x1 = 0.3996	871.5 ± 0.6	860.7 ± 0.6	–	–
35000 kPa, x1 = 0.5015	876.7 ± 0.6	865.8 ± 0.6	–	–
35000 kPa, x1 = 0.5982	880.3 ± 0.7	869.3 ± 0.7	–	–
35000 kPa, x1 = 0.6898	882.9 ± 0.7	872 ± 0.7	–	–
35000 kPa, x1 = 0.7929	885.3 ± 0.7	874.4 ± 0.8	–	–
35000 kPa, x1 = 0.8885	887.2 ± 0.8	876.3 ± 0.8	–	–
35000 kPa, x1 = 0.9435	888.1 ± 0.8	877.1 ± 0.8	–	–
35000 kPa, x1 = 1	888.9 ± 0.9	877.9 ± 0.9	–	–
40000 kPa, x1 = 0.0511	836.8 ± 0.6	826 ± 0.6	–	–
40000 kPa, x1 = 0.1003	845.1 ± 0.6	834.5 ± 0.6	–	–
40000 kPa, x1 = 0.1962	857.6 ± 0.6	847.1 ± 0.6	–	–
40000 kPa, x1 = 0.2989	867.4 ± 0.6	856.9 ± 0.6	–	–
40000 kPa, x1 = 0.3996	874.1 ± 0.6	863.5 ± 0.6	–	–
40000 kPa, x1 = 0.5015	879.3 ± 0.6	868.6 ± 0.6	–	–
40000 kPa, x1 = 0.5982	882.8 ± 0.7	872.1 ± 0.7	–	–
40000 kPa, x1 = 0.6898	885.5 ± 0.7	874.8 ± 0.7	–	–
40000 kPa, x1 = 0.7929	887.9 ± 0.8	877.1 ± 0.8	–	–
40000 kPa, x1 = 0.8885	889.7 ± 0.8	878.9 ± 0.8	–	–
40000 kPa, x1 = 0.9435	890.6 ± 0.9	879.7 ± 0.9	–	–
40000 kPa, x1 = 1	891.4 ± 0.9	880.6 ± 0.9	–	–
